Consider one molecule from US20230338356A1, “TREATMENT OF AUTOIMMUNE SKIN DISEASE” (Aslan Pharmaceuticals Pte Ltd, priority 2022, published 2023).

Test [1] has as its system Krt14-KitL* (SCF) mice. Kind of test: Vitiligo scoring in vitiligo mouse model. Type of test: in vivo. The settings on record: 6 weeks (30 treatment days).
Test [2] relates to PMEL T cell. Description: Flow cytometry of PMEL T cell counts in tissues of vitiligo mouse model. Type of test: in vivo.
Test [3] has as its system C3H/HeJ mice. Kind of test: Hair coverage in alopecia areata (AA) skin-graft mouse model. As to conditions: 150 or 300 mg/kg/day oral gavage once daily, week 8 time point (10 weeks after engraftment), vs vehicle. Type of test: in vivo. As to the method:
The C3H/HeJ mouse strain is known to spontaneously develop alopecia (AA) at a low frequency over a prolonged time frame. Transplantation of AA-affected skin from a C3H/HeJ mouse to unaffected C3H/HeJ recipients will induce the development of AA in nearly 100% of recipients over 4-8 weeks. Accordingly, to produce the AA mouse model, AA-affected C3H/HeJ skin was grafted onto groups of unaffected C3H/HeJ mice. The following treatment groups (n=10 per treatment group) were tested: • 1. Vehicle 0.5% methylcellulose (negative control) • 2. 150 mg/kg/day farudodstat • 3. 300 mg/kg/day farudodstat Treatments were administered once daily by oral gavage starting 2 weeks after engraftment and concluded after 12 weeks (84 days) of treatment. Photographs were taken at baseline, and every 4 weeks until the end of study Ventral hair growth was scored based on the photographs. Any mouse that had >98% hair coverage was classified as ‘no hair loss’.

Test [4] has as its system proliferating CD3+ T cells in human hair follicles. Kind of test: CD3/Ki-67 immunofluorescence of cultured human hair follicles after CD3/CD28 activation. In kind it is cell-based. The settings on record: 70 or 140 nM farudodstat + 25 μg/ml CD3/CD28, vs CD3/CD28 alone. As to the method: (§1) Human hair follicle samples were obtained after informed after informed, written patient consent and ethics committee approval (University of Muenster 2015-602-f-S) and the Comite de Bioetica de la Universidad Fernando Pessoa Canarias (03 (2020-06-22)). This study was conducted according to the Declaration of Helsinki principles.
Cryosections of cultured human hair follicles were immunostained, using antibodies against the human CD3 transmembrane protein of T-lymphocytes (THERMOFISHER, Cat. 15-0038-45, clone UCHT1) and Ki-67, which is a marker of proliferation (ABCAM. Cat. ab15580). Fluorescent images were acquired using the Keyence BZ-X810 inverted microscope and CD3 and double positive cells were counted in epithelium and mesenchyme along the entire hair follicle. The number of proliferative CD3+ T-cells is given as a total number of double positive cells per hair follicle.
(§2) Human hair follicles (HF) were cultured on Day 0 in 48-well plates (1 HF per […]) at 37° C. with 5% CO2 in a media William's E media+RPMI (Gibco, Life Technologies) supplemented with 10 ng/ml hydrocortisone (Sigma Aldrich), 10 μg/ml insulin (Sigma Aldrich), 2 mM L-glutamine (Sigma Aldrich), and 1% penicillin/streptomycin mix (Gibco).
On Day 1, anagen VI HFs were selected for further culture. For quality control, only HFs that grew at least 3% from Day 0 to Day 1 were selected for continued experimentation, […]

The subject of test [5] is MHC Class I. Description: MHC-I immunostaining of cultured human hair follicles after CD3/CD28 activation. In kind it is cell-based. As to conditions: 70 or 140 nM farudodstat + 25 μg/ml CD3/CD28, vs CD3/CD28 alone. As to the method: as §1
Cryosections of cultured human hair follicles were immunostained, using a monoclonal mouse antibody against human MHC-I (DAKO, Cat. R7000, clone W6/32). Fluorescent images were acquired using the Keyence BZ-X810 inverted microscope and images were analysed using ImageJ software.
as §2
On Day 1, anagen VI HFs were selected for further culture. For quality control, only HFs that grew at least 3% from Day 0 to Day 1 were selected for continued experimentation,
In order to induce hair follicle immune privilege collapse and to activate resident intra/perifollicular immune cells, the hair follicles were pre-treated with CD3/CD28. […]

Regarding `COc1cccc(-c2cc(F)c(Nc3ncccc3C(=O)O)c(F)c2)c1` [farudodstat, 2-(3,5-difluoro-3′-methoxybiphenyl-4-ylamino) nicotinic acid], the “final mean vitiligo score” value in test [1] (75 mg/kg/day oral gavage, vs vehicle) is “improvement in vitiligo score compared to the vehicle treated control group”; in test [1] (150 mg/kg/day oral gavage, vs vehicle and vs 75 mg/kg/day), “greater improvement in vitiligo score compared to the 75 mg/kg/day group”. For the same molecule, the “mean PMEL count, 150 mg/kg/day compared to 75 mg/kg/day” value in test [2] (150 mg/kg/day oral gavage, end of experiment, flow cytometry) was “greater reduction in mean PMEL count compared to 75 mg/kg/day”. Besides, the “mean PMEL T cell count, dermis and epidermis” value in test [2] (75 and 150 mg/kg/day oral gavage, end of experiment, flow cytometry) was “reduction in mean Pmel T cell count”. For the same molecule, the “mean PMEL count in the spleen” value in test [2] (oral gavage, compared with anti-IFNγ 250 μg twice a week IP) was “reduction in mean PMEL count in the spleen that was even greater than that observed for anti-IFNγ”. Further, the “mean % hair coverage” value in test [3] was “slight improvement in % hair coverage compared to the mice treated with vehicle”. Further, the “CD3+ T cell expansion (% of proliferating T-cells in hair follicles)” value in test [4] was “T cell expansion was reduced”. Besides, the “MHC Class I expression levels in hair follicles” value in test [5] is given as “decreased MHC Class I expression levels”.
